PubChem BioAssay (NCI)
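How tested: cells in 96-well plates exposed to compound for 48 hours at five concentrations. TGI: concentration producing complete growth inhibition.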

What was measured:
Assay in all cases: inhibition of tumour cell growth, NCI panel, 48 h
A549 NSCLC = system: A549 NSCLC
MOLT-4 leukemia = system: MOLT-4 leukemia
HT29 colon = system: HT29 colon
UACC-257 melanoma = system: UACC-257 melanoma
MDA-MB-435 = system: MDA-MB-435
NCI-H226 lung = system: NCI-H226 lung
A498 renal = system: A498 renal
MALME-3M melanoma = system: MALME-3M melanoma
SK-MEL-2 melanoma = system: SK-MEL-2 melanoma
HCT-15 colon = system: HCT-15 colon
LOX IMVI melanoma = system: LOX IMVI melanoma
MCF7 breast = system: MCF7 breast
BT-549 breast = system: BT-549 breast
EKVX NSCLC = system: EKVX NSCLC
SN12C renal = system: SN12C renal

SMILES: O=C1/C(=C\c2ccc(O)cc2)CCC/C1=C/c1ccc(Cl)c(Cl)c1
- TGI (A549 NSCLC): 15 µM
- TGI (MOLT-4 leukemia): 5.8 µM
- TGI (HT29 colon): 3.54 µM
- TGI (UACC-257 melanoma): 15.7 µM
- TGI (MDA-MB-435): 9.51 µM
- TGI (NCI-H226 lung): 15.5 µM
- TGI (A498 renal): 14.3 µM
- TGI (MALME-3M melanoma): 17.5 µM
- TGI (SK-MEL-2 melanoma): 36.9 µM
- TGI (HCT-15 colon): 9.75 µM
- TGI (LOX IMVI melanoma): 3.62 µM
- TGI (MCF7 breast): 14.9 µM
- TGI (BT-549 breast): 7.49 µM
- TGI (EKVX NSCLC): 20 µM
- TGI (SN12C renal): 10.4 µM

SMILES: CC(C)Cn1cnc2c(NCC(C)O)nc3ccccc3c21 (stereo not given)
- TGI (A549 NSCLC): > 100 µM
- TGI (MOLT-4 leukemia): > 100 µM
- TGI (HT29 colon): > 100 µM
- TGI (UACC-257 melanoma): > 100 µM
- TGI (MDA-MB-435): > 100 µM
- TGI (NCI-H226 lung): > 100 µM
- TGI (A498 renal): > 100 µM
- TGI (MALME-3M melanoma): > 100 µM
- TGI (SK-MEL-2 melanoma): > 100 µM
- TGI (HCT-15 colon): > 100 µM
- TGI (LOX IMVI melanoma): > 100 µM
- TGI (MCF7 breast): > 100 µM
- TGI (BT-549 breast): > 100 µM
- TGI (EKVX NSCLC): > 100 µM
- TGI (SN12C renal): > 100 µM

SMILES: COC(=O)C1(C(=O)OC)Cc2ccc(OC)cc2C2=C1C(=O)c1ccccc1C2=O
- TGI (A549 NSCLC): 30.9 µM
- TGI (MOLT-4 leukemia): 3.97 µM
- TGI (HT29 colon): 59.5 µM
- TGI (UACC-257 melanoma): 7.15 µM
- TGI (MDA-MB-435): 3.52 µM
- TGI (NCI-H226 lung): 36.9 µM
- TGI (A498 renal): 41.8 µM
- TGI (MALME-3M melanoma): 26.3 µM
- TGI (SK-MEL-2 melanoma): 15.7 µM
- TGI (HCT-15 colon): 25.2 µM
- TGI (LOX IMVI melanoma): 5.39 µM
- TGI (MCF7 breast): 7.3 µM
- TGI (BT-549 breast): 37.3 µM
- TGI (EKVX NSCLC): 19.1 µM
- TGI (SN12C renal): 14.4 µM

SMILES: COC(=O)c1ccc(C)cc1CC1Cc2cc(C)ccc2C1=O (stereo not given)
- TGI (A549 NSCLC): > 100 µM
- TGI (MOLT-4 leukemia): > 100 µM
- TGI (HT29 colon): > 100 µM
- TGI (UACC-257 melanoma): > 100 µM
- TGI (MDA-MB-435): > 100 µM
- TGI (NCI-H226 lung): > 100 µM
- TGI (A498 renal): > 100 µM
- TGI (MALME-3M melanoma): > 100 µM
- TGI (SK-MEL-2 melanoma): > 100 µM
- TGI (HCT-15 colon): > 100 µM
- TGI (LOX IMVI melanoma): > 100 µM
- TGI (MCF7 breast): > 100 µM
- TGI (BT-549 breast): > 100 µM
- TGI (EKVX NSCLC): > 100 µM
- TGI (SN12C renal): > 100 µM

SMILES: [N-]=[N+]=Nc1ccccc1C(=O)N1C(=O)c2ccccc2C(=O)N(C(=O)c2ccccc2N=[N+]=[N-])c2ccccc21
- TGI (A549 NSCLC): > 100 µM
- TGI (MOLT-4 leukemia): 50.7 µM
- TGI (HT29 colon): > 100 µM
- TGI (UACC-257 melanoma): > 100 µM
- TGI (MDA-MB-435): > 100 µM
- TGI (NCI-H226 lung): > 100 µM
- TGI (A498 renal): > 100 µM
- TGI (MALME-3M melanoma): > 100 µM
- TGI (SK-MEL-2 melanoma): > 100 µM
- TGI (HCT-15 colon): > 100 µM
- TGI (LOX IMVI melanoma): > 100 µM
- TGI (MCF7 breast): > 100 µM
- TGI (BT-549 breast): > 100 µM
- TGI (EKVX NSCLC): > 100 µM
- TGI (SN12C renal): > 100 µM

SMILES: O=C1C(Cl)C2(CC(/C=C/c3ccccc3Cl)=NN2c2cccc(S(=O)(=O)O)c2)N1c1nc2ccccc2s1 (stereo not given)
- TGI (A549 NSCLC): > 100 µM
- TGI (MOLT-4 leukemia): > 100 µM
- TGI (HT29 colon): > 100 µM
- TGI (UACC-257 melanoma): > 100 µM
- TGI (MDA-MB-435): 24.3 µM
- TGI (NCI-H226 lung): > 100 µM
- TGI (A498 renal): > 100 µM
- TGI (MALME-3M melanoma): > 100 µM
- TGI (SK-MEL-2 melanoma): > 100 µM
- TGI (HCT-15 colon): > 100 µM
- TGI (LOX IMVI melanoma): 27.4 µM
- TGI (MCF7 breast): > 100 µM
- TGI (BT-549 breast): > 100 µM
- TGI (EKVX NSCLC): > 100 µM
- TGI (SN12C renal): > 100 µM
